# Assay results published in patent US20230065953A1, “NOVEL HETEROARYL-TRIAZOLE COMPOUNDS AS PESTICIDES” (Bayer Aktiengesellschaft, priority 2019, published 2023).
# Assays:
# Format in all cases: in vivo
# [1] = test system: adult cat fleas (Ctenocephalides felis); assay: Ctenocephalides felis in-vitro contact test, adult cat flea; conditions: 5 μg/cm^2 (=500 g/ha), after 48 hours
# Summary of the method: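 Acetone solutions of compound were coated onto inner walls of glass tubes (900 ppm giving 5 μg/cm^2) and dried; 5-10 adult C. felis were then held 48 h at room temperature. Efficacy = % fleas dead or moribund, judged by inability to escape a 45-50° C heating plate within 5 min.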
# [2] = test system: adult flies Musca domestica strain WHO-N; assay: Musca domestica test (MUSCDO surface treatment & contact assay); conditions: 24 hours after contact, read-out: efficacy (mortality); for mortality at 4 mg/m2: surface concentration 4 mg/m^2, 30 min exposure; for mortality at 20 mg/m2: surface concentration 20 mg/m^2, 30 min exposure
# Summary of the method: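 Compound in acetone at 2 mg/ml with 2000 ppm RME pipetted onto glazed tile; after acetone evaporates, adult WHO-N flies exposed on dried surface for 30 min. Percent mortality scored 24 h after contact.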
# [3] = test system: adult mosquitoes Aedes aegypti strain MONHEIM; assay: Aedes aegypti test (AEDSAE surface treatment & contact assay); conditions: 24 hours after contact, read-out: efficacy (mortality); for mortality at 20 mg/m2: surface concentration 20 mg/m^2, 30 min exposure; for mortality at 4 mg/m2: surface concentration 4 mg/m^2, 30 min exposure
# Experimental: Aedes aegypti test (AEDSAE surface treatment & contact assay) • Solvent: Aceton+2000 ppm rapeseed oil methyl ester (RME)
# (§1) In order to produce a sufficient, active ingredient containing solution it is necessary to solve the test compound in the solvent-mix (acetone at 2 mg/ml/RME 2000 ppm). This solution is pipetted onto a glazed tile and after evaporation of the acetone, adult mosquitoes of the species Aedes aegypti strain MONHEIM are placed onto the dried surface. The exposure time is 30 minutes.
# (§2) Mortality in percent (%) is determined 24 hours after contact of the insects to the treated surface. 100% mortality means that all tested insects are dead, whereas 0% means that no insect died.
# [4] = test system: larvae of the banded cucumber beetle (Diabrotica balteata); assay: Diabrotica balteata spray test; conditions: 168 h, 100 g/ha (=32 μg/well), wheat seeds, after 7 days, read-out: efficacy (seedling growth)
# Summary of the method: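 Wheat seeds germinated 1 day on agar were sprayed with compound in acetone/dimethylformamide with alkylarylpolyglycol ether emulsifier, diluted in emulsifier-containing water. Each unit then received 10-20 larvae, and % efficacy was scored after 7 days.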
# [5] = test system: adult brown dog ticks (Rhipicephalus sanguineus); assay: Rhipicephalus sanguineus in-vitro contact test with adult brown dog ticks; conditions: 5 μg/cm^2 (=500 g/ha), after 48 hours, read-out: efficacy (ticks dead or moribund)
# Experimental: Rhipicephalus sanguineus—In-Vitro Contact Tests with Adult Brown Dog Ticks
# 9 mg compound is solved in 1 mL acetone and diluted with acetone to the desired concentration. 250 μL of the test solution is filled in 25 mL glass test tubes and homogeneously distributed on the inner walls by rotation and tilting on a shaking device (2 h at 30 rpm). With a compound concentration of 900 ppm, an inner surface of 44.7 cm^2 and a homogeneous distribution, a dose of 5 μg/cm^2 is achieved.
# After the solvent has evaporated, each test tube is filled with 5-10 adult brown dog ticks (Rhipicephalus sanguineus), closed with a perforated lid and incubated in a lying position at room temperature and relative humidity. After 48 hours efficacy is determined. The ticks are patted on the ground of the tubes and are incubated on a heating plate at 45-50° C. for at most 5 minutes. Immotile or uncoordinated moving ticks, which are not able to escape the heat by climbing upwards, are marked as dead or moribund.
# An efficacy of 100% means all ticks are dead or moribund; 0% means no ticks are dead or moribund.
# [6] = test system: larvae of the southern green stink bug (Nezara viridula); assay: Nezara viridula spray test; conditions: in Hordeum vulgare, 96 h
# Summary of the method: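 Barley plants sprayed with compound in acetone/dimethylformamide, diluted in water with 1000 ppm alkylarylpolyglycol ether emulsifier, then infested with Nezara viridula larvae. Percent mortality read after 4 days (100% = all killed, 0% = none).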
# [7] = test system: green peach aphid (Myzus persicae); assay: Myzus persicae spray test; conditions: foliar, 120 h, Chinese cabbage leaf disks, after 5 days
# Summary of the method: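 Chinese cabbage leaf discs infested with all instars of the aphid were sprayed with compound prepared in acetone/DMF and diluted in water containing 1000 ppm emulsifier. Mortality (%) was scored after 5 days, 100% meaning all aphids killed and 0% none.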
# [8] = test system: Rhipicephalus microplus larvae (strain Parkhurst, resistant against synthetic pyrethroids); assay: Rhipicephalus (Boophilus) microplus in-vitro contact test, larval cattle tick; conditions: 5 μg/cm^2 (=500 g/ha), after 48 hours, read-out: efficacy (larvae dead or moribund)
# Summary of the method: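 After drying, 20-50 larvae were held per tube at 27° C., 85% relative humidity for 48 h, and efficacy was scored as % dead or moribund.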
# [9] = test system: brown planthopper (Nilaparvata lugens); assay: Nilaparvata lugens spray test; conditions: 96 h, rice plants, after 4 days
# Experimental: Nilaparvata lugens—Spray Test • Solvent: 78.0 parts by weight of acetone • 1.5 parts by weight of dimethylformamide • Emulsifier: alkylarylpolyglycol ether
# To produce a suitable preparation of active compound, 1 part by weight of active compound is mixed with the stated amount of solvents and is diluted with water, containing an emulsifier concentration of 1000 ppm, to the desired concentration. Further test concentrations are prepared by dilution with emulsifier containing water.
# Rice plants (Oryza sativa) are sprayed with a preparation of the active ingredient of the desired concentration and the plants are infested with the brown planthopper (Nilaparvata lugens).
# After 4 days mortality in % is determined. 100% means all planthoppers have been killed and 0% means none of the planthoppers have been killed.
# [10] = test system: fall armyworm larvae (Spodoptera frugiperda); assay: Spodoptera frugiperda spray test (maize leaf sections); conditions: 168 h
# Summary of the method: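 Maize leaf sections sprayed with compound in acetone/dimethylformamide, diluted in water with 1000 ppm alkylarylpolyglycol ether emulsifier. Dried sections infested with fall armyworm larvae. Mortality (%) scored after 7 days; 100% = all caterpillars killed.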
# [11] = test system: adult mosquitoes Anopheles funestus strain FUMOZ-R; assay: Anopheles funestus test (ANPHFU surface treatment & contact assay); conditions: 24 hours after contact, read-out: efficacy (mortality); for mortality at 20 mg/m2: surface concentration 20 mg/m^2, 30 min exposure; for mortality at 4 mg/m2: surface concentration 4 mg/m^2, 30 min exposure
# Experimental: Anopheles funestus Test (ANPHFU Surface Treatment & Contact Assay) • Solvent: Aceton+2000 ppm rapeseed oil methyl ester (RME)
# as §1, with “Anopheles funestus” for “Aedes aegypti”, “FUMOZ-R (Hunt et al., Med. Vet. Entomol. 2005 September; 19(3): 271-275)” for “MONHEIM”
# as §2
SMILES,efficacy (fleas dead or moribund) [1],mortality at 4 mg/m2 [2],mortality at 20 mg/m2 [2],mortality at 20 mg/m2 [3],"pest or weed control at 32 µg/disc, 100 g/ha [4]","pest or weed control at 5 µg/cm2, 500 g/ha [5]",mortality at 500 g/ha [6],mortality at 100 g/ha [7],pest or weed control at 5 µg/cm2 [8],mortality at 100 g/ha ([9]; 100 g/ha),mortality at 500 g/ha ([9]; 500 g/ha),mortality at 100 g/ha [10],mortality at 20 mg/m2 [11],mortality at 4 mg/m2 [3],mortality at 4 mg/m2 [11],mortality at 100 g/ha [6]
C[C@H](NC(=O)c1cc(C(F)(F)F)cc(C(F)(F)F)c1)c1ncnn1-c1ncc(C(=O)N(C)C)s1 [I-64],100%,90 to 100%,80 to 100%,80 to 100%,100%,100%,100%,100%,100%,90%,90%,100%,80 to 100%,,,
C[C@H](NC(=O)c1cc(Cl)cc(C(F)(F)Cl)c1)c1ncnn1-c1ncc(C#N)s1 [I-85],,90 to 100%,80 to 100%,80 to 100%,100%,,,100%,,,,100%,80 to 100%,80 to 100%,80 to 100%,
C[C@H](NC(=O)c1cc(Br)cc(OC(F)(F)F)c1)c1ncnn1-c1ncc(C(=O)N(C)C)s1 [I-118],,,80 to 100%,80 to 100%,100%,,100%,,,,,100%,80 to 100%,,80 to 100%,100%
C[C@H](NC(=O)c1cc(OC(F)F)cc(SC(F)F)c1)c1ncnn1-c1ncc(C#N)s1 [I-130],,90 to 100%,80 to 100%,80 to 100%,100%,,100%,90%,,,,100%,80 to 100%,,,
C[C@H](NC(=O)c1cc(OC(F)(F)F)cc(C2(C#N)CC2)c1)c1ncnn1-c1ncc(C#N)s1 [I-142],,90 to 100%,80 to 100%,80 to 100%,100%,,100%,90%,,,,100%,80 to 100%,80 to 100%,,
